Experimental data from patent US8975398B2, “NAMPT inhibitors” (AbbVie Inc., priority 2012, dated 2015).
pIC50: −log10 of the molar value.

Tests used:
[1] = target: NAMPT (human, recombinant, C-terminally His-tagged) (Homo sapiens, UniProt P43490); assay: Time-Resolved Fluorescence Resonance Energy Transfer (TR-FRET) Binding Assay of NAMPT; details: 6.8 nM NAMPT, 200 nM probe, equilibrated 3 hours, absence of substrates
Method in brief: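 Recombinant C-terminally His-tagged human NAMPT (6.8 nM) incubated 3 h at room temperature with 200 nM Oregon Green 488–labelled nicotinamide-competitive probe and 1 nM Tb-anti-His antibody in HEPES pH 7.5, 2% DMSO. TR-FRET ratio Em520/Em495 normalized to controls; IC50 from four-parameter logistic fit.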

NAMPT = NAMPT (Homo sapiens, UniProt P43490); assay: Time-Resolved Fluorescence Resonance Energy Transfer (TR-FRET) Binding Assay of NAMPT with PRPP; details: 2 nM NAMPT, 2 nM probe, 200 uM PRPP and 2.5 mM ATP, equilibrated 16 hours
Method in brief: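 Final mix: 2 nM NAMPT, 2 nM probe, 1 nM Tb-anti-His antibody, 200 uM PRPP, 2.5 mM ATP, 2% DMSO in 1× assay buffer. Equilibrated 16 hours before TR-FRET read, allowing possible enzymatic modification of compounds.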

NAMPT (human, recombinant, C-terminally His-tagged), sequence (P43490 whole entry): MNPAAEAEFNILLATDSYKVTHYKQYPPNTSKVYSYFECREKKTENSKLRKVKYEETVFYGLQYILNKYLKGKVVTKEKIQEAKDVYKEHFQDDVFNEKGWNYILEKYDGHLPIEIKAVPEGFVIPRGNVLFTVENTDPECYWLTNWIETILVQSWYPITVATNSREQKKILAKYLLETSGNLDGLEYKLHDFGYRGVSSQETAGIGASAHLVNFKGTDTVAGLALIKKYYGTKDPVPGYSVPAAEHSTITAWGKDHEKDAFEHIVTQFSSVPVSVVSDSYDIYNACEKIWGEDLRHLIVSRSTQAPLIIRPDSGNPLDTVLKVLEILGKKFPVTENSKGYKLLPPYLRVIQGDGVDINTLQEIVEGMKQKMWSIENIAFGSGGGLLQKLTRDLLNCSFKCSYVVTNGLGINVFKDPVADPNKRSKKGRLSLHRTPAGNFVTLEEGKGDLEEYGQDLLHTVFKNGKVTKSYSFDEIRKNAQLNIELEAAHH
NAMPT, sequence (P43490 whole entry): as above

| Compound | pIC50 [1] | pIC50 (NAMPT) |
| --- | --- | --- |
| CC(C)Cn1cc(-c2ccc(C(=O)NC3CN(c4cccnn4)C3)s2)cn1 [Example 315, 5-[1-(2-methylpropyl)-1H-pyrazol-4-yl]-N-[1-(pyridazin-3-yl)azetidin-3-yl]thiophene-2-carboxamide] | 6.33 | 9.19 |
| CC(=O)N1CCC(c2ccc(NC(=O)C3CN(c4cccnn4)C3)cc2)CC1 [Example 316, N-[4-(1-acetylpiperidin-4-yl)phenyl]-1-(pyridazin-3-yl)azetidine-3-carboxamide] | 6.98 | 9.03 |
| CCCC(=O)N1CCC(c2ccc(NC(=O)C3CN(c4cccnn4)C3)cc2)CC1 [Example 317, N-[4-(1-butanoylpiperidin-4-yl)phenyl]-1-(pyridazin-3-yl)azetidine-3-carboxamide] | 7.36 | 9.00 |
| CCCCC(=O)N1CCC(c2ccc(NC(=O)C3CN(c4cccnn4)C3)cc2)CC1 [Example 318, N-[4-(1-pentanoylpiperidin-4-yl)phenyl]-1-(pyridazin-3-yl)azetidine-3-carboxamide] | 7.42 | 9.15 |
| CCC(C)C(=O)N1CCC(c2ccc(NC(=O)C3CN(c4cccnn4)C3)cc2)CC1 (stereo not drawn) [Example 319, N-{4-[1-(2-methylbutanoyl)piperidin-4-yl]phenyl}-1-(pyridazin-3-yl)azetidine-3-carboxamide] | 7.60 | 9.13 |
| CC(C)CC(=O)N1CCC(c2ccc(NC(=O)C3CN(c4cccnn4)C3)cc2)CC1 [Example 320, N-{4-[1-(3-methylbutanoyl)piperidin-4-yl]phenyl}-1-(pyridazin-3-yl)azetidine-3-carboxamide] | 7.58 | 9.21 |
| CCCCCC(=O)N1CCC(c2ccc(NC(=O)C3CN(c4cccnn4)C3)cc2)CC1 [Example 321, N-[4-(1-hexanoylpiperidin-4-yl)phenyl]-1-(pyridazin-3-yl)azetidine-3-carboxamide] | 7.41 | 9.06 |
| CCCC(C)C(=O)N1CCC(c2ccc(NC(=O)C3CN(c4cccnn4)C3)cc2)CC1 (stereo not drawn) [Example 322, N-{4-[1-(2-methylpentanoyl)piperidin-4-yl]phenyl}-1-(pyridazin-3-yl)azetidine-3-carboxamide] | 7.54 | 9.07 |
| CCC(C)CC(=O)N1CCC(c2ccc(NC(=O)C3CN(c4cccnn4)C3)cc2)CC1 (stereo not drawn) [Example 323, N-{4-[1-(3-methylpentanoyl)piperidin-4-yl]phenyl}-1-(pyridazin-3-yl)azetidine-3-carboxamide] | 7.60 | 9.05 |
| CC(C)CCC(=O)N1CCC(c2ccc(NC(=O)C3CN(c4cccnn4)C3)cc2)CC1 [Example 324, N-{4-[1-(4-methylpentanoyl)piperidin-4-yl]phenyl}-1-(pyridazin-3-yl)azetidine-3-carboxamide] | 7.33 | 8.98 |
| CCC(C)(C)C(=O)N1CCC(c2ccc(NC(=O)C3CN(c4cccnn4)C3)cc2)CC1 [Example 325, N-{4-[1-(2,2-dimethylbutanoyl)piperidin-4-yl]phenyl}-1-(pyridazin-3-yl)azetidine-3-carboxamide] | 7.85 | 8.97 |
| CC(C)C(C)C(=O)N1CCC(c2ccc(NC(=O)C3CN(c4cccnn4)C3)cc2)CC1 (stereo not drawn) [Example 326, N-{4-[1-(2,3-dimethylbutanoyl)piperidin-4-yl]phenyl}-1-(pyridazin-3-yl)azetidine-3-carboxamide] | 7.74 | 9.20 |
| CC(C)(C)CC(=O)N1CCC(c2ccc(NC(=O)C3CN(c4cccnn4)C3)cc2)CC1 [Example 327, N-{4-[1-(3,3-dimethylbutanoyl)piperidin-4-yl]phenyl}-1-(pyridazin-3-yl)azetidine-3-carboxamide] | 7.90 | 9.18 |
| CCC(CC)C(=O)N1CCC(c2ccc(NC(=O)C3CN(c4cccnn4)C3)cc2)CC1 [Example 328, N-{4-[1-(2-ethylbutanoyl)piperidin-4-yl]phenyl}-1-(pyridazin-3-yl)azetidine-3-carboxamide] | 7.91 | 9.21 |
| CCCCCCC(=O)N1CCC(c2ccc(NC(=O)C3CN(c4cccnn4)C3)cc2)CC1 [Example 329, N-[4-(1-heptanoylpiperidin-4-yl)phenyl]-1-(pyridazin-3-yl)azetidine-3-carboxamide] | 7.62 | 9.21 |
| C=CCC(=O)N1CCC(c2ccc(NC(=O)C3CN(c4cccnn4)C3)cc2)CC1 [Example 330, N-{4-[1-(but-3-enoyl)piperidin-4-yl]phenyl}-1-(pyridazin-3-yl)azetidine-3-carboxamide] | 7.50 | 9.05 |
| C=CCCC(=O)N1CCC(c2ccc(NC(=O)C3CN(c4cccnn4)C3)cc2)CC1 [Example 331, N-{4-[1-(pent-4-enoyl)piperidin-4-yl]phenyl}-1-(pyridazin-3-yl)azetidine-3-carboxamide] | 7.60 | 9.08 |
| O=C(Nc1ccc(C2CCN(C(=O)CC(F)(F)F)CC2)cc1)C1CN(c2cccnn2)C1 [Example 332, 1-(pyridazin-3-yl)-N-{4-[1-(3,3,3-trifluoropropanoyl)piperidin-4-yl]phenyl}azetidine-3-carboxamide] | 7.66 | 9.16 |
| COCC(=O)N1CCC(c2ccc(NC(=O)C3CN(c4cccnn4)C3)cc2)CC1 [Example 333, N-{4-[1-(methoxyacetyl)piperidin-4-yl]phenyl}-1-(pyridazin-3-yl)azetidine-3-carboxamide] | 7.29 | 9.20 |
| CSCC(=O)N1CCC(c2ccc(NC(=O)C3CN(c4cccnn4)C3)cc2)CC1 [Example 334, N-(4-{1-[(methylsulfanyl)acetyl]piperidin-4-yl}phenyl)-1-(pyridazin-3-yl)azetidine-3-carboxamide] | 7.74 | 9.24 |
| COCCOCC(=O)N1CCC(c2ccc(NC(=O)C3CN(c4cccnn4)C3)cc2)CC1 [Example 335, N-(4-{1-[(2-methoxyethoxy)acetyl]piperidin-4-yl}phenyl)-1-(pyridazin-3-yl)azetidine-3-carboxamide] | 6.68 | 8.99 |

Second part, the compound after the results:

| pIC50 [1] | pIC50 (NAMPT) | Compound |
| --- | --- | --- |
| 7.11 | 9.31 | O=C(Nc1ccc(C2CCN(C(=O)CC[N+](=O)[O-])CC2)cc1)C1CN(c2cccnn2)C1 [Example 336, N-{4-[1-(3-nitropropanoyl)piperidin-4-yl]phenyl}-1-(pyridazin-3-yl)azetidine-3-carboxamide] |
| 7.30 | 9.28 | CSCCC(=O)N1CCC(c2ccc(NC(=O)C3CN(c4cccnn4)C3)cc2)CC1 [Example 337, N-(4-{1-[3-(methylsulfanyl)propanoyl]piperidin-4-yl}phenyl)-1-(pyridazin-3-yl)azetidine-3-carboxamide] |
| 7.56 | 9.28 | C#CCCC(=O)N1CCC(c2ccc(NC(=O)C3CN(c4cccnn4)C3)cc2)CC1 [Example 338, N-{4-[1-(pent-4-ynoyl)piperidin-4-yl]phenyl}-1-(pyridazin-3-yl)azetidine-3-carboxamide] |
| 7.75 | 9.18 | O=C(Nc1ccc(C2CCN(C(=O)C3CCCCC3)CC2)cc1)C1CN(c2cccnn2)C1 [Example 339, N-{4-[1-(cyclohexylcarbonyl)piperidin-4-yl]phenyl}-1-(pyridazin-3-yl)azetidine-3-carboxamide] |
| 7.75 | 9.14 | O=C(Nc1ccc(C2CCN(C(=O)CC3CCCCC3)CC2)cc1)C1CN(c2cccnn2)C1 [Example 340, N-{4-[1-(cyclohexylacetyl)piperidin-4-yl]phenyl}-1-(pyridazin-3-yl)azetidine-3-carboxamide] |
| 7.45 | 9.14 | Cc1cccc(C(=O)N2CCC(c3ccc(NC(=O)C4CN(c5cccnn5)C4)cc3)CC2)c1 [Example 341, N-{4-[1-(3-methylbenzoyl)piperidin-4-yl]phenyl}-1-(pyridazin-3-yl)azetidine-3-carboxamide] |
| 7.88 | 9.16 | O=C(Nc1ccc(C2CCN(C(=O)c3ccccc3O)CC2)cc1)C1CN(c2cccnn2)C1 [Example 342, N-{4-[1-(2-hydroxybenzoyl)piperidin-4-yl]phenyl}-1-(pyridazin-3-yl)azetidine-3-carboxamide] |
| 8.21 | 9.14 | O=C(Nc1ccc(C2CCN(C(=O)c3cccc(O)c3)CC2)cc1)C1CN(c2cccnn2)C1 [Example 343, N-{4-[1-(3-hydroxybenzoyl)piperidin-4-yl]phenyl}-1-(pyridazin-3-yl)azetidine-3-carboxamide] |
| 7.42 | 9.24 | O=C(Nc1ccc(C2CCN(C(=O)c3ccc(O)cc3)CC2)cc1)C1CN(c2cccnn2)C1 [Example 344, N-{4-[1-(4-hydroxybenzoyl)piperidin-4-yl]phenyl}-1-(pyridazin-3-yl)azetidine-3-carboxamide] |
| 8.02 | 9.41 | COc1ccccc1C(=O)N1CCC(c2ccc(NC(=O)C3CN(c4cccnn4)C3)cc2)CC1 [Example 345, N-{4-[1-(2-methoxybenzoyl)piperidin-4-yl]phenyl}-1-(pyridazin-3-yl)azetidine-3-carboxamide] |
| 7.51 | 9.34 | COc1cccc(C(=O)N2CCC(c3ccc(NC(=O)C4CN(c5cccnn5)C4)cc3)CC2)c1 [Example 346, N-{4-[1-(3-methoxybenzoyl)piperidin-4-yl]phenyl}-1-(pyridazin-3-yl)azetidine-3-carboxamide] |
| 7.18 | 9.03 | COc1ccc(C(=O)N2CCC(c3ccc(NC(=O)C4CN(c5cccnn5)C4)cc3)CC2)cc1 [Example 347, N-{4-[1-(4-methoxybenzoyl)piperidin-4-yl]phenyl}-1-(pyridazin-3-yl)azetidine-3-carboxamide] |
